Experimental findings from patent publication US20100075978A1, “SULFONAMIDE DERIVATIVES AS BRADYKININ ANTAGONISTS” (priority 2006, published 2010) are described below.

SMILES strings stand for the structures. Counter-ions that a name gives are not always drawn. Like-named read-outs stand apart in the source and are kept apart here.

Assay [1] deals with T1, human recombinant bradykinin B1 receptor (Homo sapiens, UniProt P46663).
T1 construct: purchased Euroscreen ES-091; host or cells: CHO cells
T1 sequence (P46663 1-353): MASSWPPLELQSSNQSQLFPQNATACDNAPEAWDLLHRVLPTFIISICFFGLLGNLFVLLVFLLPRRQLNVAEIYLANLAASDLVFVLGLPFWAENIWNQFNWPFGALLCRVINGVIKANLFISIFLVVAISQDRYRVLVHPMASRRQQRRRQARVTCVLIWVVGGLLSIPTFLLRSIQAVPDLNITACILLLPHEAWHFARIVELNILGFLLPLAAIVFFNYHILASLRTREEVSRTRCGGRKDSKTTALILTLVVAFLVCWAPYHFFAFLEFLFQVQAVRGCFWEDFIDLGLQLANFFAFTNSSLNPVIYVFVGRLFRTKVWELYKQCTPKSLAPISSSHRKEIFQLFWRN
The experiment in a line: Human recombinant bradykinin B1 receptor binding. The protocol: 1. Human Recombinant Bradykinin B1 Receptor Binding
Binding assays were carried out on human recombinant bradykinin) receptors (expressed in CHO cells) according to the Euroscreen Technical Data Sheet (Cat.No.:ES-091). 20 μg protein/tube was incubated with [3,4-prolyl-3,4-^3H(N)]-[Des-Arg^10] Kallidin as radioligand. Non specific binding was determined in the presence of 10 μM Lys-des-Arg^9-Bradykinin. The final incubation volume was 250 μl. Samples were incubated for 15 min. at 25° C. then were rapidly vacuum filtered through GF/B filters presoaked for at least 1 h in 0.5% PEI. Radioactivity was determined by liquid scintillation spectroscopy.

For assay [2], the target named is T2, recombinant human B1 receptors (Homo sapiens, UniProt P46663).
T2 construct: host or cells: CHO (CHO-B1)
T2 sequence (P46663 1-353): T1 sequence (P46663 1-353)
The experiment in a line: Functional assay: cytosolic calcium ion concentration measured with plate reader fluorimeter in CHO-B1 cells, agonist LysDABK. Format: cell-based. The protocol: Assessment of Antagonist Potency at B1 and B2 Receptors In Vitro by Measurement of Cytosolic Calcium Ion Concentration with a Plate Reader Fluorimeter in Cells Expressing Recombinant Human B1 or B2 Receptors
Chinese hamster ovary (CHO) cells stably expressing recombinant human B1 (CHO-B1, Euroscreen) or B2 (CHO-B2, Perkin-Elmer) receptors were cultured in Dulbecco's Modified Eagle's Medium (DMEM) containing 10% Fetal Calf Serum (FCS), 100 U/ml penicillin, 0.1 mg/ml streptomycin, 0.25 μg/ml amphotericin B, 1% Minimum Essential Medium Eagle (MEM), non essential amino acid solution, 600 μg/ml G418, 1% pyruvate (for the B2 cell line). Cells were kept at 37° C. in a humidified incubator in an atmosphere of 5% CO2/95% air and were passaged 1:4 three times a week. Cells were plated at 1.5-2.5×10^4 cell/well on standard 96-well microplates, measurements of cytosolic calcium ion concentration ([Ca^2+]i) were carried out 1-2 days after cell plating.
Measurements of [Ca^2+]i were carried out on CHO-B1 and CHO-B2 cells stably expressing human B1 and B2 receptors, respectively. Cells were grown in standard 96-well microplates and before the measurement were loaded with a fluorescent Ca^2+-sensitive dye, fluo-4/AM (2 μM): after removing the culture medium the dye was added to the cells (dissolved in assay buffer: 145 mM NaCl, 5 mM KCl, 2 mM MgCl2, 2 mM CaCl2, 10 mM HEPES, 20 mM D-glucose, 2 mM probenecid, 100 μl/well) and cells were incubated at 37° C. in a humidified incubator in an atmosphere of 5% CO2/95% air for 40-120 min. To stop dye loading cells were washed twice with assay buffer. After washing, various concentrations of the test compounds (diluted in extracellular medium from a DMSO stock solution, final DMSO concentration was <0.1%) or buffer were added to each well depending on the experimental setup. After incubation at 37° C. for 20-25 min. baseline and agonist-evoked changes of [Ca^2+]i were measured column by column with a plate reader fluorimeter (Fluoroskan Ascent, Labsystems). Excitation and detection of emission was carried out from the bottom of the plate. Filters used for Fluo-4: excitation filter—485 nm, emission filter—538 nm. The whole measurement process was performed at 37° C. and was controlled by custom software. Inhibitory potency of the test compounds was assessed by measuring the reduction in the agonist-evoked [Ca^2]i-elevation in the presence of different concentrations of the compounds. The agonists were LysDABK for CHO-B1, and bradykinin for CHO-B2 cells. Agonists were applied at an EC80 concentration, the EC80-values were derived from daily determined dose-response curves. Fluorescence data were expressed as ΔF/F (fluorescence change normalized to baseline). All treatments on a single plate were measured in multiple wells. Data from all wells with the same treatment were averaged and the average values were used for analysis. Inhibitory potency of a compound at a single concentration point was expressed as percent inhibition of the control agonist response. Sigmoidal concentration-inhibition curves were fitted to the data (derived from at least three independent experiments) and IC50-values were determined as the concentration that produces half of the maximal inhibition caused by the compound.

[3] abbreviates: reference compounds, binding test, read-out: Ki.
Where [4] appears, read: reference compounds, functional test, read-out: IC50.
[5] abbreviates: radioligand [3H]-[Des-Arg10] Kallidin, CHO cell membranes, read-out: B1 binding.
Where [6] appears, read: CHO-B1 cells, LysDABK at EC80, [Ca2+]i, read-out: B1 func.

For `CCCN1C(=O)[C@H](NC(=O)Nc2ccc(N3CCC(N4CCCCC4)CC3)cc2)N=C(c2ccc(C)cc2)c2ccccc21` [compound 3, N-[4-(,4′-bipiperidin)-1′-ylphenyl]-N′-[(3R)-2,3-dihydro-5-(4-methyl-phenyl)-2-oxo-1-propyl-1H-1,4-benzodiazepin-3-yl]-urea, reference compound], in assay [1] (setting [3]), the Ki was found to be 13.4 nM. Besides, in assay [2] (setting [4]), the IC50 worked out at 64.5 nM.
With `CCCN1C(=O)[C@H](NC(=O)Nc2ccc(N3CCN(c4ccncc4)CC3)cc2)N=C(CCc2ccccc2)c2ccccc21` [compound 2, (R)—N-[2,3-dihydro-2-oxo-5-(2-phenyl-ethyl)-1-propyl-1H-1,4-benzodiazepin-3-yl]-N′-{4-[4-(4-pyridinyl)-1-piperazinyl]-phenyl}-urea, reference compound], in assay [1] (setting [3]), the Ki was found to be 0.59 nM. Besides, in assay [2] (setting [4]), the IC50 was 1.9 nM.
With `O=C(NCc1ccc(CC2CCNCC2)cc1)c1ccc(S(=O)(=O)Nc2ccccc2Oc2ccc(Br)cc2Cl)cc1` [Example 166, 4-[2-(4-Bromo-2-chloro-phenoxy)-phenylsulfamoyl]-N-(4-piperidin-4-ylmethyl-benzyl)-benzamide hydrochloride], in assay [1] (setting [5]), the Ki fell in the range of 20 to 100 nM. Besides, the IC50 in assay [2] (setting [6]) lay within 20 to 100 nM.
On to `O=C(N[C@H]1CC[C@H](CCN2CCCC2)CC1)c1ccc(S(=O)(=O)Nc2ccccc2Oc2ccc(Cl)c(Cl)c2)cc1` [Example 64, trans-4-[2-(3,4-Dichloro-phenoxy)-phenylsulfamoyl]-N-[4-(2-pyrrolidin-1-yl-ethyl)-cyclohexyl]-benzamide], for which the Ki in assay [1] (setting [5]) lay within 20 to 100 nM. In addition, the IC50 in assay [2] (setting [6]) is 20 to 100 nM.
For the compound `CN1CCC(N2CCC(CCNC(=O)c3ccc(S(=O)(=O)Nc4ccccc4Oc4ccc(Cl)cc4Cl)cc3)CC2)CC1` [Example 24, 4-[2-(2,4-Dichloro-phenoxy)-phenylsulfamoyl]-N-[2-(1-methyl-[1,4′]bipiperidinyl-4-yl)-ethyl]-benzamide], the Ki in assay [1] (setting [5]) is less than 20 nM. Besides, the IC50 in assay [2] (setting [6]) is less than 20 nM.
Turning to `O=C(NCCCN1CCC(N2CCCCC2)CC1)c1ccc(S(=O)(=O)Nc2ccccc2Oc2ccc(Cl)c(Cl)c2)cc1` [Example 5, N-(3-[1,4′]Bipiperidinyl-1′-yl-propyl)-4-[2-(3,4-dichloro-phenoxy)-phenylsulfamoyl]-benzamide], the Ki in assay [1] (setting [5]) is less than 20 nM. Besides, in assay [2] (setting [6]), the IC50 is less than 20 nM.
On to `O=C(c1ccc(S(=O)(=O)Nc2ccccc2Oc2ccc(Cl)c(Cl)c2)cc1)N1CCN(CCCN2CCCCC2)CC1` [Example 87, N-[2-(3,4-Dichloro-phenoxy)-phenyl]-4-[4-(3-piperidin-1-yl-propyl)-piperazine-1-carbonyl]-benzenesulfonamide], for which the Ki in assay [1] (setting [5]) fell in the range of 100 to 500 nM. Besides, the IC50 in assay [2] (setting [6]) lay in the range of 100 to 500 nM.
As to `O=C(NCCCN1CCN(c2ccncc2)CC1)c1ccc(S(=O)(=O)Nc2cc(F)ccc2Oc2ccc(Br)cc2)cc1` [Example 105, 4-[2-(4-Bromo-phenoxy)-5-fluoro-phenylsulfamoyl]-N-[3-(4-pyridin-4-yl-piperazin-1-yl)-propyl]-benzamide], in assay [1] (setting [5]), the Ki was less than 20 nM. Further, in assay [2] (setting [6]), the IC50 was less than 20 nM.
Take `O=C(CCNC(=O)c1ccc(S(=O)(=O)Nc2ccccc2Oc2ccc(Cl)cc2Cl)cc1)NC1CCNCC1` [Example 33, 4-[2-(2,4-Dichloro-phenoxy)-phenylsulfamoyl]-N-[2-(piperidin-4-ylcarbamoyl)-ethyl]-benzamide acetate]: the Ki in assay [1] (setting [5]) is 20 to 100 nM. For the same compound, the IC50 in assay [2] (setting [6]) was 20 to 100 nM.
For `O=C(N[C@H]1CC[C@H](CCN2CCCC2)CC1)c1ccc(S(=O)(=O)Nc2ccccc2Oc2ccc(F)cc2Cl)cc1` [Example 121, trans-4-[2-(2-Chloro-4-fluoro-phenoxy)-phenylsulfamoyl]-N-[4-(2-pyrrolidin-1-yl-ethyl)-cyclohexyl]-benzamide], in assay [1] (setting [5]), the Ki lay within 20 to 100 nM. Moreover, in assay [2] (setting [6]), the IC50 fell in the range of 20 to 100 nM.
For the compound `O=C(NCCCCC1CCNCC1)c1ccc(S(=O)(=O)Nc2ccccc2Oc2ccc(Br)cc2Cl)cc1` [Example 167, 4-[2-(4-Bromo-2-chloro-phenoxy)-phenylsulfamoyl]-N-(4-piperidin-4-yl-butyl)-benzamide hydrochloride], the Ki in assay [1] (setting [5]) is 20 to 100 nM. The IC50 in assay [2] (setting [6]) is 20 to 100 nM.
